Earlier results as cited in US8771712B2, “Topical administration of acyclovir” (Emisphere Technologies, Inc., priority 2006, dated 2014).

Conditions: humans, microdialysis

Acyclovir concentration (dermis) (after removal of the stratum corneum and infusion of 0.0005% noradrenaline): 3.9 µg/mL
Acyclovir in the dermis (application to intact skin): no acyclovir was detected
SMILES: Nc1nc2c(ncn2COCCO)c(=O)[nH]1 [acyclovir, 9-(2-hydroxyethoxymethyl) guanine]
